US9856279B2 (AGIOS PHARMACEUTICALS, INC, priority 2011, dated 2018)

Assays:
[1] = target: IDH1 R132H (Homo sapiens, UniProt O75874, R132H); assay: Assay for IDH1 R132H inhibitors (NADPH/aKG, resazurin detection); format: biochemical; conditions: enzyme assay of Example 12; read-out: IDH1R132H IC50
Outline: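 Compound added to substrate mix (8 uM NADPH, 2 mM aKG), then enzyme mix (0.2 μg/ml IDH1 R132H); 50 min RT in 20 mM Tris pH 7.5, 150 mM NaCl, 10 mM MgCl2, 0.03% BSA. Resazurin detection mix (30 μM) 5 min RT; resorufin fluorescence Ex544/Em590.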

[2] = test system: HT1080 cells; assay: Cellular assay for IDH1m inhibitors: inhibition of 2-HG production (LC-MS, 48 hours) in HT1080 cells; format: cell-based; conditions: Homo sapiens, HT-1080; inhibition of 2-HG production, HT1080 cells; read-out: HT1080 IC50
Outline: (§1)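 Each cell line is plated at 5000 cells/well in DMEM with 10% FBS and left overnight at 37 °C. Test compounds are then added for 48 h, after which 2-HG in the medium is determined by LC-MS; IC50 reflects 50% reduction compared with control.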

[3] = test system: U87MG cells; assay: Cellular assay for IDH1m inhibitors: inhibition of 2-HG production (LC-MS, 48 hours) in U87MG cells; format: cell-based; conditions: Homo sapiens, U-87 MG, inhibition of 2-HG production, U87R132H cells; read-out: U87R132H IC50
Outline: as §1

Sequence of IDH1 R132H (O75874 whole entry R132H): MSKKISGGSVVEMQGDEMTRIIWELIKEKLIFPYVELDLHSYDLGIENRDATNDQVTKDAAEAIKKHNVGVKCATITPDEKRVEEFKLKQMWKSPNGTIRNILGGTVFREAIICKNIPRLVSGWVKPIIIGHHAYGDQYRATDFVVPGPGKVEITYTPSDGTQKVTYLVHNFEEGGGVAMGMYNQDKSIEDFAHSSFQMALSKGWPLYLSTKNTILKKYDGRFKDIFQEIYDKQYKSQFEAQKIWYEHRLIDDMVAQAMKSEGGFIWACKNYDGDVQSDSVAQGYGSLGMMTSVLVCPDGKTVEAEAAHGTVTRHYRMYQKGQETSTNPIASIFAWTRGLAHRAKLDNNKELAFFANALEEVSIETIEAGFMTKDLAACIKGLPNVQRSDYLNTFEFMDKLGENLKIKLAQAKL

Row | SMILES | IC50 [1] [nM] | IC50 [2] [nM] | IC50 [3] [nM]
1 | C=Cc1cc(-c2cc(C#N)c(N3CCN(C(=O)CCO)[C@H](C)C3)nc2C2CC2)ncn1 [Compound 621, (R)-6-cyclopropyl-2-(4-(3-hydroxypropanoyl)-3-methylpiperazin-1-yl)-5-(6-vinylpyrimidin-4-yl)nicotinonitrile] | < 500 | < 500 | 500 to 1000
2 | C=Cc1cc(-c2c(C3CC3)nc(N3CCN(C(=O)C[C@H]4CCO4)[C@H](C(C)C)C3)c(C#N)c2C)cnn1 [Compound 786, 6-cyclopropyl-2-((R)-3-isopropyl-4-(2-((R)-oxetan-2-yl)acetyl)piperazin-1-yl)-4-methyl-5-(6-vinylpyridazin-4-yl)nicotinonitrile] | < 500 | < 500 | < 500
3 | C=Cc1cc(-c2cc(C#N)c(N3CCN(C(=O)CO)[C@H](C4CC4)C3)nc2C2CC2)ccn1 [Compound 738, (R)-2-cyclopropyl-6-(3-cyclopropyl-4-(2-hydroxyacetyl)piperazin-1-yl)-2′-vinyl-3,4′-bipyridine-5-carbonitrile] | < 500 | < 500 | < 500
4 | C=Cc1cc(Nc2cc(C#N)c(N3CCN(C(=O)CCO)[C@H](C)C3)nc2C2CC2)ccn1 [Compound 581, (R)-6-cyclopropyl-2-(4-(3-hydroxypropanoyl)-3-methylpiperazin-1-yl)-5-((2-vinylpyridin-4-yl)amino)nicotinonitrile] | < 500 | < 500 | < 500
5 | C=Cc1cc(-c2c(C3CC3)nc(N3CCN(C(=O)CCOC)[C@H](C)C3)c(C#N)c2C)ncn1 [Compound 627, (R)-6-cyclopropyl-2-(4-(3-methoxypropanoyl)-3-methylpiperazin-1-yl)-4-methyl-5-(6-vinylpyrimidin-4-yl)nicotinonitrile] | < 500 | < 500 | < 500
6 | C=Cc1cc(Nc2cc(C#N)c(N3CCN(C(=O)CCOC)[C@H](C)C3)nc2C2CC2)c2cccnc2n1 [Compound 705, (R)-6-cyclopropyl-2-(4-(3-methoxypropanoyl)-3-methylpiperazin-1-yl)-5-(2-vinyl-1,8-naphthyridin-4-ylamino)nicotinonitrile] | < 500 | < 500 | < 500
7 | COCCC(=O)N1CCN(c2nc(C3CC3)c(-c3cccc4cnc(C)cc34)cc2C#N)C[C@H]1C [Compound 433, (R)-6-cyclopropyl-2-(4-(3-methoxypropanoyl)-3-methylpiperazin-1-yl)-5-(3-methylisoquinolin-5-yl)nicotinonitrile] | < 500 | < 500 | < 500
8 | COCCC(=O)N1CCN(c2nc(C3CC3)c(-c3cccc4cnccc34)cc2C#N)C[C@H]1C [Compound 286, (R)-6-cyclopropyl-5-(isoquinolin-5-yl)-2-(4-(3-methoxypropanoyl)-3-methylpiperazin-1-yl)nicotinonitrile] | < 500 | < 500 | < 500
9 | C=Cc1ncc2c(-c3cc(C#N)c(N4CCN(C(=O)CCOC)[C@H](C(C)C)C4)nc3C3CC3)cccc2n1 [Compound 634, (R)-6-cyclopropyl-2-(3-isopropyl-4-(3-methoxypropanoyl)piperazin-1-yl)-5-(2-vinylquinazolin-5-yl)nicotinonitrile] | < 500 | < 500 | < 500

Next, values leading:

Row | IC50 [1] [nM] | IC50 [2] [nM] | IC50 [3] [nM] | SMILES
10 | < 500 | < 500 | < 500 | C=Cc1cnnc(-c2cc(C#N)c(N3CCN(C(=O)C[C@H]4CCO4)[C@H](C4CC4)C3)nc2C2CC2)c1 [Compound 766, 6-cyclopropyl-2-((R)-3-cyclopropyl-4-(2-((R)-oxetan-2-yl)acetyl)piperazin-1-yl)-5-(5-vinylpyridazin-3-yl)nicotinonitrile]
11 | < 500 | < 500 | < 500 | C=Cc1cc(-c2cc(C#N)c(N3CCN(C(=O)CCO)[C@@H](C4CC4)C3)nc2C2CC2)ccn1 [Compound 587, (S)-2-cyclopropyl-6-(3-cyclopropyl-4-(3-hydroxypropanoyl)piperazin-1-yl)-2′-vinyl-[3,4′-bipyridine]-5-carbonitrile]
12 | < 500 | < 500 | < 500 | C=Cc1cc(-c2c(C3CC3)nc(N3CCN(C(=O)CCO)[C@H](C)C3)c(C#N)c2C)ccn1 [Compound 654, (R)-2-cyclopropyl-6-(4-(3-hydroxypropanoyl)-3-methylpiperazin-1-yl)-4-methyl-2′-vinyl-[3,4′-bipyridine]-5-carbonitrile]
13 | < 500 | 1000 to 10000 | 1000 to 10000 | COCCC(=O)N1CCN(c2nc(C3CC3)c(O[C@@H](C)c3ccccc3)cc2C#N)C[C@H]1C [Compound 303, 6-cyclopropyl-2-((R)-4-(3-methoxypropanoyl)-3-methylpiperazin-1-yl)-5-((S)-1-phenylethoxy)nicotinonitrile]
14 | 500 to 1000 | 1000 to 10000 | 1000 to 10000 | COCCC(=O)N1CCN(c2nc(C3CC3)c(-c3ccc(F)cc3F)c(C)c2C#N)C[C@H]1C [Compound 264, 6-cyclopropyl-5-(2,4-difluorophenyl)-2-((R)-4-(3-methoxypropanoyl)-3-methylpiperazin-1-yl)-4-methylnicotinonitrile]
15 | < 500 | < 500 | < 500 | N#Cc1cc(-c2cccc3cnccc23)c(C2CC2)nc1N1CCN(C(=O)CC(F)(F)F)[C@H](C2CC2)C1 [Compound 387, (R)-6-cyclopropyl-2-(3-cyclopropyl-4-(3,3,3-trifluoropropanoyl)piperazin-1-yl)-5-(isoquinolin-5-yl)nicotinonitrile]
16 | < 500 | < 500 | < 500 | C=Cc1cc(-c2cc(C#N)c(N3CCN(C(=O)C[C@@H](C)O)[C@H](C4CC4)C3)nc2C2CC2)ccn1 [Compound 585, 2-cyclopropyl-6-((R)-3-cyclopropyl-4-((R)-3-hydroxybutanoyl)piperazin-1-yl)-2′-vinyl-3,4′-bipyridine-5-carbonitrile]
17 | < 500 | < 500 | < 500 | C=Cc1cc(-c2cc(C#N)c(N3CCN(C(=O)COC)[C@H](C4CC4)C3)nc2C2CC2)ccn1 [Compound 590, (R)-2-cyclopropyl-6-(3-cyclopropyl-4-(2-methoxyacetyl)piperazin-1-yl)-2′-vinyl-3,4′-bipyridine-5-carbonitrile]
18 | < 500 | < 500 | < 500 | C=Cc1cc(Cc2cc(C#N)c(N3CCN(C(=O)CCO)[C@H](C4CC4)C3)nc2C2CC2)ccn1 [Compound 697, (R)-6-cyclopropyl-2-(3-cyclopropyl-4-(3-hydroxypropanoyl)piperazin-1-yl)-5-((2-vinylpyridin-4-yl)methyl)nicotinonitrile]
19 | < 500 | 1000 to 10000 | 1000 to 10000 | CCC(Oc1cc(C#N)c(N2CCN(C(=O)CCOC)[C@H](C)C2)nc1C1CC1)c1ccccc1 (stereo partly drawn) [Compound 308, 6-cyclopropyl-2-((R)-4-(3-methoxypropanoyl)-3-methylpiperazin-1-yl)-5-(1-phenylpropoxy)nicotinonitrile]
20 | < 500 | < 500 | < 500 | C=Cc1cc(-c2cc(C#N)c(N3CCN(C(=O)CCO)[C@H](C)C3)nc2C2CC2)c2ccccc2n1 [Compound 591, (R)-6-cyclopropyl-2-(4-(3-hydroxypropanoyl)-3-methylpiperazin-1-yl)-5-(2-vinylquinolin-4-yl)nicotinonitrile]
